Data: paper PMC6691788, “Design and synthesis of phthalazine-based compounds as potent anticancer agents with potential antiangiogenic activity via VEGFR-2 inhibition” (Journal of Enzyme Inhibition and Medicinal Chemistry, 2019)

Key:
[1] = tested on: NCI-H226; test: NCI 60 cell panel SRB screen; assay type: cell-based; conditions: Homo sapiens; for activity at 10 µM: NCI-H226, single dose 10 μM, read-out: percent cell growth promotion
[2] = tested on: SNB-19; test: NCI 60 cell panel SRB screen; assay type: cell-based; conditions: Homo sapiens; for activity at 10 µM: SNB-19, single dose 10 μM, read-out: percent cell growth promotion
[3] = tested on: NCI-H23; test: NCI 60 cell panel SRB screen; assay type: cell-based; conditions: Homo sapiens; for activity at 10 µM: NCI-H23, single dose 10 μM, read-out: percent cell growth promotion
[4] = tested on: SK-OV-3; test: NCI 60 cell panel SRB screen; assay type: cell-based; conditions: Homo sapiens; for activity at 10 µM: SK-OV-3, single dose 10 μM, read-out: percent cell growth promotion
[5] = tested on: IGROV1; test: NCI 60 cell panel SRB screen; assay type: cell-based; conditions: Homo sapiens, IGROV-1; for activity at 10 µM: IGROV1, single dose 10 μM, read-out: percent cell growth promotion
[6] = tested on: NCI-H460; test: NCI 60 cell panel SRB screen; assay type: cell-based; conditions: Homo sapiens; for activity at 10 µM: NCI-H460, single dose 10 μM, read-out: percent cell growth promotion
[7] = tested on: CAKI-1; test: NCI 60 cell panel SRB screen; assay type: cell-based, human; conditions: for activity at 10 µM: CAKI-1, single dose 10 μM, read-out: percent cell growth promotion
[8] = tested on: NCI/ADR-RES; test: NCI 60 cell panel SRB screen; assay type: cell-based; conditions: Homo sapiens; for activity at 10 µM: single dose 10 μM, read-out: percent cell growth promotion
[9] = tested on: T-47D; test: NCI 60 cell panel SRB screen; assay type: cell-based; conditions: Homo sapiens, T47D; for activity at 10 µM: read-out: percent cell growth promotion
[10] = tested on: full NCI 60 cell panel; test: NCI 60 cell panel SRB screen, whole panel; assay type: cell-based, human; conditions: for activity at 10 µM: mean over the panel, single dose 10 μM, read-out: Mean percent cell growth promotion
[11] = tested on: PC-3; test: NCI 60 cell panel SRB screen; assay type: cell-based; conditions: Homo sapiens; for activity at 10 µM: PC-3, single dose 10 μM, read-out: percent cell growth promotion
[12] = tested on: SN12C; test: NCI 60 cell panel SRB screen; assay type: cell-based; conditions: Homo sapiens; for activity at 10 µM: single dose 10 μM, read-out: percent cell growth promotion
[13] = tested on: HL-60(TB); test: NCI 60 cell panel SRB screen; assay type: cell-based; conditions: Homo sapiens; for activity at 10 µM: single dose 10 μM, read-out: percent cell growth promotion
[14] = tested on: U251; test: NCI 60 cell panel SRB screen; assay type: cell-based; conditions: Homo sapiens, U-251; for activity at 10 µM: U251, single dose 10 μM, read-out: percent cell growth promotion
[15] = tested on: RXF 393; test: NCI 60 cell panel SRB screen; assay type: cell-based; conditions: Homo sapiens; for activity at 10 µM: RXF 393, single dose 10 μM, read-out: percent cell growth promotion
[16] = tested on: ACHN; test: NCI 60 cell panel SRB screen; assay type: cell-based; conditions: Homo sapiens; for activity at 10 µM: single dose 10 μM, read-out: percent cell growth promotion
[17] = tested on: SNB-75; test: NCI 60 cell panel SRB screen; assay type: cell-based; conditions: Homo sapiens; for activity at 10 µM: SNB-75, single dose 10 μM, read-out: percent cell growth promotion
[18] = tested on: OVCAR-5; test: NCI 60 cell panel SRB screen; assay type: cell-based; conditions: Homo sapiens; for activity at 10 µM: OVCAR-5, single dose 10 μM, read-out: percent cell growth promotion
[19] = tested on: SK-MEL-28; test: NCI 60 cell panel SRB screen; assay type: cell-based; conditions: Homo sapiens; for activity at 10 µM: SK-MEL-28, read-out: percent cell growth promotion
[20] = 5 log dose, 48 h, read-out: LC50 (the source's name)

Cc1nnc(N2CCN(c3ccccn3)CC2)c2ccccc12 [Compound 8i, 1-Methyl-4–(4-(pyridin-2-yl)piperazin-1-yl)phthalazine]
activity at 10 µM [1]: 98.7%
activity at 10 µM [2]: 101%
activity at 10 µM [3]: 106%
activity at 10 µM [4]: 108%
activity at 10 µM [5]: 112%
activity at 10 µM [6]: 103%
activity at 10 µM ([7]; Homo sapiens): 94.8%
activity at 10 µM [8]: 105%
activity at 10 µM [9]: 96%
activity at 10 µM ([10]; Homo sapiens, 60 cell): 101%
cell growth inhibition, in words ([10]; single dose 10 µM): nor the piperazines (8a, 8d, 8f, 8g, 8h and 8i) showed any significant cell line growth inhibition
activity at 10 µM [11]: 100%
activity at 10 µM [12]: 104%
activity at 10 µM [13]: 108%
activity at 10 µM [14]: 98.6%
activity at 10 µM [15]: 98.6%
activity at 10 µM [16]: 99.6%
activity at 10 µM [17]: 114%
activity at 10 µM [18]: 98.2%
activity at 10 µM [19]: 101%

O=C(Nc1ccccc1)Nc1ccc(Oc2nnc(Cl)c3ccccc23)cc1 [Compound 13a, 1–(4-(4-Chlorophthalazin-1-yloxy)phenyl)-3-phenylurea]
GI50 ([1]; NCI-H226, 5 log dose): 1950 nM
IC (TGI) ([1]; NCI-H226, 5 log dose): 9.25 µM
CC50 ([1]; NCI-H226, 5 log dose, 48 h, read-out: LC50 (the source's name)): > 25 µM
activity at 10 µM [1]: 8.66%
GI50 ([2]; SNB-19, 5 log dose): 1670 nM
IC (TGI) ([2]; SNB-19, 5 log dose): 8.46 µM
CC50 ([2]; SNB-19, 5 log dose, 48 h, read-out: LC50 (the source's name)): > 25 µM
activity at 10 µM [2]: 9.64%
GI50 ([3]; NCI-H23, 5 log dose): 3.72 µM
IC (TGI) ([3]; NCI-H23, 5 log dose): 9.44 µM
CC50 ([3]; NCI-H23, 5 log dose, 48 h, read-out: LC50 (the source's name)): 24 µM
activity at 10 µM [3]: 32.7%
GI50 ([4]; SK-OV-3, 5 log dose): 1460 nM
IC (TGI) ([4]; SK-OV-3, 5 log dose): 5.51 µM
CC50 ([4]; SK-OV-3, 5 log dose, 48 h, read-out: LC50 (the source's name)): 16.6 µM
activity at 10 µM [4]: -0.5%
GI50 ([5]; IGROV1, 5 log dose): 3.32 µM
IC (TGI) ([5]; IGROV1, 5 log dose): 7.92 µM
CC50 ([5]; IGROV1, 5 log dose, 48 h, read-out: LC50 (the source's name)): 18.9 µM
activity at 10 µM [5]: 37.2%
GI50 ([6]; NCI-H460, 5 log dose): 2670 nM
IC (TGI) ([6]; NCI-H460, 5 log dose): 8.65 µM
LC50 (concentration causing 50% cell kill) ([6]; NCI-H460, 5 log dose, 48 h): > 25 µM
activity at 10 µM [6]: 25.2%
TGI ([7]; CAKI-1, 5 log dose): 14.3 µM
GI50 ([7]; Homo sapiens, CAKI-1, 5 log dose): 3.34 µM
CC50 ([7]; Homo sapiens, CAKI-1, 5 log dose, 48 h, read-out: LC50 (the source's name)): > 25 µM
activity at 10 µM ([7]; Homo sapiens): 84.4%
GI50 ([8]; 5 log dose): 2630 nM
IC (TGI) ([8]; 5 log dose): 6.39 µM
CC50 [8, 20]: 15.5 µM
activity at 10 µM [8]: 16.9%
GI50 [9]: 630 nM
IC (TGI) ([9]; read-out: TGI): 10.8 µM
activity at 10 µM [9]: -18%
CC50 ([9]; T-47D, 5 log dose, 48 h, read-out: LC50 (the source's name)): > 25 µM
activity at 10 µM ([10]; Homo sapiens, 60 cell): 24.1%
inhibition at 10 µM ([10]; Homo sapiens, 60 cell, single dose 10 µM, read-out: cell growth inhibition against various cell lines): > 90%
GI50 ([11]; PC-3, 5 log dose): 3.26 µM
IC (TGI) ([11]; PC-3, 5 log dose): 10.6 µM
CC50 ([11]; PC-3, 5 log dose, 48 h, read-out: LC50 (the source's name)): > 25 µM
activity at 10 µM [11]: 25.9%
GI50 ([12]; 5 log dose): 6.72 µM
IC (TGI) ([12]; 5 log dose): > 25 µM
CC50 [12, 20]: > 25 µM
activity at 10 µM [12]: 53.7%
GI50 ([13]; 5 log dose): 2700 nM
IC (TGI) ([13]; 5 log dose): > 25 µM
CC50 [13, 20]: > 25 µM
activity at 10 µM [13]: 12.1%
GI50 ([14]; U251, 5 log dose): 2140 nM
IC (TGI) ([14]; U251, 5 log dose): 5.2 µM
CC50 ([14]; U251, 5 log dose, 48 h, read-out: LC50 (the source's name)): 11.4 µM
activity at 10 µM [14]: 4.84%
GI50 ([15]; RXF 393, 5 log dose): 2690 nM
IC (TGI) ([15]; RXF 393, 5 log dose): 6.24 µM
CC50 ([15]; RXF 393, 5 log dose, 48 h, read-out: LC50 (the source's name)): 14.5 µM
activity at 10 µM [15]: -3.63%
GI50 ([16]; 5 log dose): 3.47 µM
IC (TGI) ([16]; 5 log dose): 18.7 µM
CC50 [16, 20]: > 25 µM
activity at 10 µM [16]: 33.9%
GI50 ([17]; SNB-75, 5 log dose): 1080 nM
IC (TGI) ([17]; SNB-75, 5 log dose): 5.9 µM
LC50 (concentration killing 50% of cells) ([17]; SNB-75, 5 log dose, 48 h): 21.3 µM
activity at 10 µM [17]: -42%
GI50 ([18]; OVCAR-5, 5 log dose): 5.61 µM
IC (TGI) ([18]; OVCAR-5, 5 log dose): 15.3 µM
CC50 ([18]; OVCAR-5, 5 log dose, 48 h, read-out: LC50 (the source's name)): > 25 µM
activity at 10 µM [18]: 86.3%
GI50 ([19]; SK-MEL-28): 3.57 µM
IC (TGI) ([19]; SK-MEL-28, read-out: TGI): 12.7 µM
activity at 10 µM [19]: 44.2%
CC50 ([19]; SK-MEL-28, 5 log dose, 48 h, read-out: LC50 (the source's name)): > 25 µM

O=C(Nc1ccc(Cl)cc1)Nc1ccc(Oc2nnc(Cl)c3ccccc23)cc1 [Compound 13b, 1–(4-Chlorophenyl)-3–(4-(4-chlorophthalazin-1-yloxy)phenyl)urea]
activity at 10 µM [1]: 81.4%
activity at 10 µM [2]: 103%
activity at 10 µM [3]: 89%
activity at 10 µM [4]: 88.6%
activity at 10 µM [5]: 79.2%
activity at 10 µM [6]: 98.1%
activity at 10 µM ([7]; Homo sapiens): 99.1%
activity at 10 µM [8]: 83.6%
activity at 10 µM [9]: 70.5%
activity at 10 µM ([10]; Homo sapiens, 60 cell): 88.7%
cell growth inhibition, in words ([10]; single dose 10 µM): did not show any significant cell line growth inhibition
activity at 10 µM [11]: 67.8%
activity at 10 µM [12]: 91.4%
activity at 10 µM [13]: 67.3%
activity at 10 µM [14]: 86.7%
activity at 10 µM [15]: 99.7%
activity at 10 µM [16]: 80.7%
activity at 10 µM [17]: 74%
activity at 10 µM [18]: 113%
activity at 10 µM [19]: 106%
